Laboratory results from patent US9764031B2 (priority 2010, dated 2017).

System: IL-12
Parameters: species or system mice
Conditions: mouse, in vivo

Compound: CCOCc1nc2c(N)nc3ccccc3c2n1CC(C)(C)O [R848, Resiquimod]
- peak level of systemic IL-12, free agonist higher than NC-coupled agonist: 30 fold
